Measured values: patent EP3693740A1, “IMPROVED DITHIOCARMABATE BASED COMPOUNDS, THERAPIES AND DIAGNOSTICS” (Deutsches Krebsforschungszentrum, Stiftung des öffentlichen …, priority 2019, dated 2020)

Columns and labels:
roGFP2-Orp1 = test: Oxidation of the genetically encoded H2O2 probe roGFP2-Orp1 (cytoplasmic and mitochondrial); format: cell-based; details: for reversibility of probe oxidation: concentrations below the EC50 of DKFZ-608
[1] = system: peroxides (most likely H2O2); test: Peroxide quantification with ROS Glo probe (boronate-caged luciferin precursor); format: cell-based
Source text: Gold(I) complexes have been previously reported to induce pro-oxidative effects in tumour cells.

[2] = target: truncated form of TRXR1, lacking the Sec (TRXR1ΔSec) (Homo sapiens, UniProt Q16881)
Source text: The present invention will now be further described in the following examples with reference to the accompanying figures and sequences, nevertheless, without being limited thereto. For the purposes of the present invention, all references as cited herein are incorporated by reference in their entireties.

TRXR1 [3] = target: T1, TRXR1 (Homo sapiens, UniProt Q16881); details: inhibitors pre-incubated with TRXR1 before addition of TRX1
Source text: The mode of inhibition was further characterized by investigating the effect of substrate competition.

SCLC cell line H209 = test: Induction of apoptotic cell death; format: cell-based
Source text: Treatment with DKFZ-608 caused morphological changes of the nucleus reminiscent of apoptosis (Figure 1A). […] The inventors then investigated the possible involvement of apoptotic mechanisms in the SCLC cell line H209. […] It was also investigated whether alternative cell death mechanisms like ferroptosis, necroptosis or entosis contribute to the cytotoxicity of DKFZ-608 on SCLC. Inhibitors of those cell death programs were, however, not able to desensitize SCLC cells.

SCLC = SCLC animal model, residual tumour cells after first line therapy; format: in vivo
Source text: In context of the herein disclosed invention it was discovered, that thioredoxin reductase 1 (TRXR1), when inhibited competitively, is a promising drug target for SCLC. DKFZ-608, a homoleptic dithiocarbamate gold complex, reversibly binds TRXR1 in competition with the TRXR1 substrate thioredoxin-1 (TRX1). Consequently, cells expressing low levels of TRX1, like SCLC, are hypersensitive to DKFZ-608, while cells, which express higher levels of TRX1, are resistant. DKFZ-608 causes oxidative stress in the cytoplasm, but not in mitochondria, further contributing to its low toxicity profile.

TRXR1 [4] = target: T1, TRXR1
TRXR1 [5] = target: T1, TRXR1; remark: listed apart in the source
TRXR1 [6] = target: T1, TRXR1; remark: listed apart in the source

T1 sequence (Q16881 151-649 limits assumed): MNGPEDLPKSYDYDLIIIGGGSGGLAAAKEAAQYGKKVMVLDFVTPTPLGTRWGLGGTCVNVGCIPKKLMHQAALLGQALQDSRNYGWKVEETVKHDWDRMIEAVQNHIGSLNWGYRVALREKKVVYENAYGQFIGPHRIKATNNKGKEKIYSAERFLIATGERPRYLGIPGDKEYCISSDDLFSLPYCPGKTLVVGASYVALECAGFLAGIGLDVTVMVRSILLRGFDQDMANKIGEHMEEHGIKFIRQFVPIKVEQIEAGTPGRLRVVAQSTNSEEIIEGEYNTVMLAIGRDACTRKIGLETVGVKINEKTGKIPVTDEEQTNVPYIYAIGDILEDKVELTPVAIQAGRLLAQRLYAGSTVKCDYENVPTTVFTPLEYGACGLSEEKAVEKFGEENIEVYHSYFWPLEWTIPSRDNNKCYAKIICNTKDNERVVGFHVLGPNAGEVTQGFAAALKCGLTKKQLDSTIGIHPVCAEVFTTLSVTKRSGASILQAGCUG
Chain of truncated form of TRXR1, lacking the Sec (TRXR1ΔSec) (Q16881 151-647 limits assumed, stated change not applied): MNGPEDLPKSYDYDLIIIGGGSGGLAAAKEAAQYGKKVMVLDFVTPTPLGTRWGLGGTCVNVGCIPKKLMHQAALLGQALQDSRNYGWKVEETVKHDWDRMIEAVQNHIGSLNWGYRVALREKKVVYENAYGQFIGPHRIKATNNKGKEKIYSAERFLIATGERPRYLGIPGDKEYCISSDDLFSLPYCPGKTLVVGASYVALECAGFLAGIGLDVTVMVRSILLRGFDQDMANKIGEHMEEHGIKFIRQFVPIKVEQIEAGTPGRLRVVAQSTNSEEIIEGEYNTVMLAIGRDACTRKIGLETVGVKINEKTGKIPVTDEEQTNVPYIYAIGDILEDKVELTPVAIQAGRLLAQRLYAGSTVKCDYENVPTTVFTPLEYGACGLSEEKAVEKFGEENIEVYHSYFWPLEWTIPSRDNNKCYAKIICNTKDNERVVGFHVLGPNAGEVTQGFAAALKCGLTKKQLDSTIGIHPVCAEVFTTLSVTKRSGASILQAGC

Row | SMILES | reversibility of probe oxidation (roGFP2-Orp1) | oxidation of the mitochondrial roGFP2-Orp1 probe (roGFP2-Orp1) | increase of peroxides [1] | inhibition of TRXR1ΔSec [2] | effect of increasing amounts of TRX1 on enzyme inhibition (TRXR1 [3]) | cytotoxic effect in presence of pan-Caspase inhibitor (SCLC cell line H209; H209) | Annexin-V positive cells and late apoptotic cells (SCLC cell line H209; data not shown) | tumour recurrence (SCLC) | enzymatic activity after dilution of a sample containing TRXR1 and a high concentration of inhibitor (TRXR1 [4]) | effect of DTNB substrate increase on dose response curve (TRXR1 [5]) | TRXR1 inhibition in cells (TRXR1 [6]; H209 versus A549, TRXR1 inhibition after 100min) | dose response curves upon induced overexpression of TRX1 (TRXR1 [6]; SCLC line H69)
1 | CCN(CC)C1=[S+][Au-][S]C(N(CC)CC)=[S+][Au-][S]1 [DKFZ-608] | appears to be reversible | did not cause oxidation of the mitochondrial probe | induced fast and strong increase of peroxides | not inhibited | increasing amounts of TRX1 reduced enzyme inhibition | could be reverted by the pan-Caspase inhibitor z-VAD-FMK | increases the amount of Annexin-V positive cells and late apoptotic cells | completely prevents tumour recurrence | resulted in recovery of enzymatic activity | right-shift of the dose response curve | more potent inhibition of TRXR1 in the SCLC line H209 as compared to the NSCLC line A549 | rightshift of the dose response curves of cytotoxicity and TRXR1 inhibition
2 | CC[P+](CC)(CC)[Au-][S][C@@H]1O[C@H](COC(C)=O)[C@@H](OC(C)=O)[C@H](OC(C)=O)[C@H]1OC(C)=O [auranofin, reference compound] | remains stable | produces the same fast and pronounced increase in probe oxidation as in the cytoplasm | induced fast and strong increase of peroxides | able to repress the activity of the truncated enzyme, although to a lesser extent | an effect not observed |  |  |  | this was not the case | showed no affect with increasing DTNB concentrations |  | 
